Assay results reported in patent US20250353891A1 (MEDIMMUNE LIMITED, priority 2022, published 2025).
Starred links: 1 amine or outer side, 2 acyl side, 3 side chain; linkers in the order of their positions; H or OH if unused. Non-standard residues stand in square brackets, D forms with d. Residues, ends and D or L forms follow the SMILES beside them. Groups on a side chain read outwards from the residue. *: point of attachment. C18 diacid = O=C(O)CCCCCCCCCCCCCCCCC(=O)*; γGlu = O=C(O)[C@H](CCC(=O)[*:2])N[*:1]; αMeF = C[C@](N)(Cc1ccccc1)C(=O)O; NMeQ = CN[C@@H](CCC(N)=O)C(=O)O; αMeQ = C[C@](N)(CCC(N)=O)C(=O)O; Ac4c = NC1(C(=O)O)CCC1; AEEA = NCCOCCOCC(=O)O; Ac3c = NC1(C(=O)O)CC1; Aib = CC(C)(N)C(=O)O

How the values were obtained:
[1] = biological target: human glucagon receptor (hGCGR) (Homo sapiens, UniProt P47871); assay: cAMP production (HTRF) in CHO cells expressing hGCGR; type: cell-based; design: expressed in transfected cells; conditions: Table 7, peptides modified at position 20; cAMP in CHO hGCGR cells; geometric mean; read-out: hGluc-R EC50
In short: (§1)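 Read-out: HTRF cAMP (anti-cAMP cryptate donor, cAMP-d2 acceptor in conjugate/lysis buffer), converted to % Delta F and fitted by 4-parameter logistic for EC50. Cell densities were 1×10^5 cells/mL (hGLP-1R) or 2×10^5 cells/mL (hGCGR). Stimulation lasted 30 min at room temperature.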

[2] = biological target: human GLP-1 receptor (hGLP-1R) (Homo sapiens, UniProt P43220); assay: cAMP production (HTRF) in CHO cells expressing hGLP-1R; type: cell-based; design: expressed in transfected cells; conditions: for EC50: Table 7, peptides modified at position 20, cAMP in CHO hGLP-1R cells, geometric mean, read-out: hGLP-1R EC50; for % Relative Potency Ratio: Table 7, % GLP-1R activity relative to GLP-1 / % GlucR activity relative to glucagon
In short: as §1

Sequence of human GLP-1 receptor (hGLP-1R) (P43220 24-463): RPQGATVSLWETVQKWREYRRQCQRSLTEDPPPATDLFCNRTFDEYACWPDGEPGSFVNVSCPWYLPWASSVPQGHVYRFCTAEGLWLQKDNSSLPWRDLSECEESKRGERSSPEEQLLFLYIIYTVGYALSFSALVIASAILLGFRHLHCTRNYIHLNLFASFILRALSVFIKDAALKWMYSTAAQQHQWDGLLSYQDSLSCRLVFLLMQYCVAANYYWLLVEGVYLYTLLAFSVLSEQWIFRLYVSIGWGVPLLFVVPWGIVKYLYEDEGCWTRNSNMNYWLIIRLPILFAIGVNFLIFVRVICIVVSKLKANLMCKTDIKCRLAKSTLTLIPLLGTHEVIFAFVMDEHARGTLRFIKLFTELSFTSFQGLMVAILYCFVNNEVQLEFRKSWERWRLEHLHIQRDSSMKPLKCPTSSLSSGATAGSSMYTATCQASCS
Sequence of human glucagon receptor (hGCGR) (P47871 26-477): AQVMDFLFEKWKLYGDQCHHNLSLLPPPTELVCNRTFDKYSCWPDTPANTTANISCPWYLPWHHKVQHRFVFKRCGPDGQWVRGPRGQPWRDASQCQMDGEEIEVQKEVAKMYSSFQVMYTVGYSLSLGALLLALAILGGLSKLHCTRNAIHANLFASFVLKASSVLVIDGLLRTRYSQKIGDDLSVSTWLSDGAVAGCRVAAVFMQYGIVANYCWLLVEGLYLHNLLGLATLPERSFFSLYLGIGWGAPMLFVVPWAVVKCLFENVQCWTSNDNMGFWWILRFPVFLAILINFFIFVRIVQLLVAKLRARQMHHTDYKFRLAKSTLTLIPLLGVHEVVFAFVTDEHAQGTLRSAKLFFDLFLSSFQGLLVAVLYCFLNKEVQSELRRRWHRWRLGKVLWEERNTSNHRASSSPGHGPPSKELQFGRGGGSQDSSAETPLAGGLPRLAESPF

EC50 [1] | EC50 [2] | % Relative Potency Ratio [2] | SMILES
> 25.6 nM | 11.4 nM |  | CC[C@H](C)[C@H](NC(=O)C(C)(C)NC(=O)[C@H](CCC(N)=O)NC(=O)[C@@H](NC(=O)[C@](C)(Cc1ccccc1)NC(=O)[C@H](CC(=O)O)NC(=O)[C@H](CCCCNC(=O)COCCOCCNC(=O)COCCOCCNC(=O)CC[C@H](NC(=O)CCCCCCCCCCCCCCCCC(=O)O)C(=O)O)NC(=O)[C@H](C)NC(=O)[C@H](C)NC(=O)[C@H](CCCNC(=N)N)NC(=O)[C@H](CO)NC(=O)[C@H](CC(=O)O)NC(=O)[C@H](CC(C)C)NC(=O)[C@](C)(Cc1ccccc1)NC(=O)[C@H](CCCCN)NC(=O)[C@H](CO)NC(=O)[C@@H](NC(=O)[C@H](CC(=O)O)NC(=O)[C@H](CO)NC(=O)[C@@H](NC(=O)[C@](C)(Cc1ccccc1)NC(=O)[C@H](CO)NC(=O)CNC(=O)[C@](C)(CCC(N)=O)NC(=O)[C@H](CO)NC(=O)[C@@H](N)Cc1c[nH]cn1)[C@@H](C)O)C(C)C)C(C)C)C(=O)N[C@@H](C)C(=O)N[C@@H](CC(N)=O)C(=O)N[C@H](C(N)=O)[C@@H](C)O [Peptide 323] (H-HS[αMeQ]GS[αMeF]TSDVSK[αMeF]LDSRAAK([AEEA-AEEA-γGlu-C18 diacid])D[αMeF]VQ[Aib]IANT-NH2)
> 25.5 nM | 0.929 nM |  | CC[C@H](C)[C@H](NC(=O)C(C)(C)NC(=O)[C@H](CCC(N)=O)NC(=O)[C@@H](NC(=O)[C@](C)(Cc1ccccc1)NC(=O)[C@H](CC(=O)O)NC(=O)[C@H](CCCCNC(=O)COCCOCCNC(=O)COCCOCCNC(=O)CC[C@H](NC(=O)CCCCCCCCCCCCCCCCC(=O)O)C(=O)O)NC(=O)[C@H](C)NC(=O)[C@H](C)NC(=O)[C@H](CCCNC(=N)N)NC(=O)[C@H](CO)NC(=O)[C@H](CC(=O)O)NC(=O)[C@H](CC(C)C)NC(=O)[C@](C)(Cc1ccccc1)NC(=O)[C@H](CCCCN)NC(=O)[C@H](CO)NC(=O)[C@@H](NC(=O)[C@H](CC(=O)O)NC(=O)[C@H](CO)NC(=O)[C@@H](NC(=O)[C@](C)(Cc1ccccc1)NC(=O)[C@H](CO)NC(=O)CNC(=O)[C@H](CCC(N)=O)N(C)C(=O)[C@H](CO)NC(=O)[C@@H](N)Cc1c[nH]cn1)[C@@H](C)O)C(C)C)C(C)C)C(=O)N[C@@H](C)C(=O)N[C@@H](CC(N)=O)C(=O)N[C@H](C(N)=O)[C@@H](C)O [Peptide 325] (H-HS[NMeQ]GS[αMeF]TSDVSK[αMeF]LDSRAAK([AEEA-AEEA-γGlu-C18 diacid])D[αMeF]VQ[Aib]IANT-NH2)
> 25.6 nM | 6.74 nM |  | CC[C@H](C)[C@H](NC(=O)C(C)(C)NC(=O)[C@H](CCC(N)=O)NC(=O)[C@@H](NC(=O)[C@](C)(Cc1ccccc1)NC(=O)[C@H](CC(=O)O)NC(=O)[C@H](CCCCNC(=O)COCCOCCNC(=O)COCCOCCNC(=O)CC[C@H](NC(=O)CCCCCCCCCCCCCCCCC(=O)O)C(=O)O)NC(=O)[C@H](C)NC(=O)[C@H](C)NC(=O)[C@H](CCCNC(=N)N)NC(=O)[C@H](CO)NC(=O)[C@H](CC(=O)O)NC(=O)[C@H](CC(C)C)NC(=O)[C@](C)(Cc1ccccc1)NC(=O)[C@H](CCCCN)NC(=O)[C@H](CO)NC(=O)[C@@H](NC(=O)[C@H](CC(=O)O)NC(=O)[C@H](CO)NC(=O)[C@@H](NC(=O)[C@](C)(Cc1ccccc1)NC(=O)[C@H](CO)NC(=O)CNC(=O)[C@@H](CCC(N)=O)NC(=O)[C@H](CO)NC(=O)[C@@H](N)Cc1c[nH]cn1)[C@@H](C)O)C(C)C)C(C)C)C(=O)N[C@@H](C)C(=O)N[C@@H](CC(N)=O)C(=O)N[C@H](C(N)=O)[C@@H](C)O [Peptide 326] (H-HS[dQ]GS[αMeF]TSDVSK[αMeF]LDSRAAK([AEEA-AEEA-γGlu-C18 diacid])D[αMeF]VQ[Aib]IANT-NH2)
> 25.7 nM | 0.0301 nM |  | CC[C@H](C)[C@H](NC(=O)C(C)(C)NC(=O)[C@H](CCC(N)=O)NC(=O)[C@@H](NC(=O)[C@](C)(Cc1ccccc1)NC(=O)[C@H](CC(=O)O)NC(=O)[C@H](CCCCNC(=O)COCCOCCNC(=O)COCCOCCNC(=O)CC[C@H](NC(=O)CCCCCCCCCCCCCCCCC(=O)O)C(=O)O)NC(=O)[C@H](C)NC(=O)[C@H](C)NC(=O)[C@H](CCCNC(=N)N)NC(=O)[C@H](CO)NC(=O)[C@H](CC(=O)O)NC(=O)[C@H](CC(C)C)NC(=O)[C@](C)(Cc1ccccc1)NC(=O)[C@H](CCCCN)NC(=O)[C@H](CO)NC(=O)[C@@H](NC(=O)[C@H](CC(=O)O)NC(=O)[C@H](CO)NC(=O)[C@@H](NC(=O)[C@](C)(Cc1ccccc1)NC(=O)[C@H](CO)NC(=O)CNC(=O)[C@H](CCC(N)=O)NC(=O)C1(NC(=O)[C@@H](N)Cc2c[nH]cn2)CC1)[C@@H](C)O)C(C)C)C(C)C)C(=O)N[C@@H](C)C(=O)N[C@@H](CC(N)=O)C(=O)N[C@H](C(N)=O)[C@@H](C)O [Peptide 327] (H-H[Ac3c]QGS[αMeF]TSDVSK[αMeF]LDSRAAK([AEEA-AEEA-γGlu-C18 diacid])D[αMeF]VQ[Aib]IANT-NH2)
1.7 nM | 0.0154 nM | 218.8 | CC[C@H](C)[C@H](NC(=O)C(C)(C)NC(=O)[C@H](CCC(N)=O)NC(=O)[C@@H](NC(=O)[C@](C)(Cc1ccccc1)NC(=O)[C@H](CC(=O)O)NC(=O)[C@H](CCCCNC(=O)COCCOCCNC(=O)COCCOCCNC(=O)CC[C@H](NC(=O)CCCCCCCCCCCCCCCCC(=O)O)C(=O)O)NC(=O)[C@H](C)NC(=O)[C@H](C)NC(=O)[C@H](CCCNC(=N)N)NC(=O)[C@H](CO)NC(=O)[C@H](CC(=O)O)NC(=O)[C@H](CC(C)C)NC(=O)[C@](C)(Cc1ccccc1)NC(=O)[C@H](CCCCN)NC(=O)[C@H](CO)NC(=O)[C@@H](NC(=O)[C@H](CC(=O)O)NC(=O)[C@H](CO)NC(=O)[C@@H](NC(=O)[C@](C)(Cc1ccccc1)NC(=O)[C@H](CO)NC(=O)CNC(=O)[C@H](CCC(N)=O)NC(=O)C1(NC(=O)[C@@H](N)Cc2c[nH]cn2)CCC1)[C@@H](C)O)C(C)C)C(C)C)C(=O)N[C@@H](C)C(=O)N[C@@H](CC(N)=O)C(=O)N[C@H](C(N)=O)[C@@H](C)O [Peptide 328] (H-H[Ac4c]QGS[αMeF]TSDVSK[αMeF]LDSRAAK([AEEA-AEEA-γGlu-C18 diacid])D[αMeF]VQ[Aib]IANT-NH2; N-terminus assumed)
> 25.6 nM | 0.488 nM |  | CC[C@H](C)[C@H](NC(=O)C(C)(C)NC(=O)[C@H](CCC(N)=O)NC(=O)[C@@H](NC(=O)[C@](C)(Cc1ccccc1)NC(=O)[C@H](CC(=O)O)NC(=O)[C@H](CCCCNC(=O)COCCOCCNC(=O)COCCOCCNC(=O)CC[C@H](NC(=O)CCCCCCCCCCCCCCCCC(=O)O)C(=O)O)NC(=O)[C@H](C)NC(=O)[C@H](C)NC(=O)[C@H](CCCNC(=N)N)NC(=O)[C@H](CO)NC(=O)[C@H](CC(=O)O)NC(=O)[C@H](CC(C)C)NC(=O)[C@](C)(Cc1ccccc1)NC(=O)[C@H](CCCCN)NC(=O)[C@H](CO)NC(=O)[C@@H](NC(=O)[C@H](CC(=O)O)NC(=O)[C@H](CO)NC(=O)[C@@H](NC(=O)[C@](C)(Cc1ccccc1)NC(=O)[C@H](CO)NC(=O)CNC(=O)[C@H](CCC(N)=O)NC(=O)[C@@H](CO)NC(=O)[C@@H](N)Cc1c[nH]cn1)[C@@H](C)O)C(C)C)C(C)C)C(=O)N[C@@H](C)C(=O)N[C@@H](CC(N)=O)C(=O)N[C@H](C(N)=O)[C@@H](C)O [Peptide 330] (H-H[dS]QGS[αMeF]TSDVSK[αMeF]LDSRAAK([AEEA-AEEA-γGlu-C18 diacid])D[αMeF]VQ[Aib]IANT-NH2)
0.0666 nM | 0.0626 nM | 2.1 | CC(C)C[C@H](NC(=O)[C@H](Cc1c[nH]c2ccccc12)NC(=O)[C@H](CCCNC(=N)N)NC(=O)[C@@H](NC(=O)[C@H](Cc1ccccc1)NC(=O)[C@H](CC(=O)O)NC(=O)[C@H](CCCCNC(=O)COCCOCCNC(=O)COCCOCCNC(=O)CC[C@H](NC(=O)CCCCCCCCCCCCCCCCC(=O)O)C(=O)O)NC(=O)[C@H](C)NC(=O)[C@H](CCCNC(=N)N)NC(=O)[C@H](CCCNC(=N)N)NC(=O)[C@H](CO)NC(=O)[C@H](CC(=O)O)NC(=O)[C@H](CC(C)C)NC(=O)[C@](C)(Cc1ccccc1)NC(=O)[C@H](CCCCN)NC(=O)[C@H](CO)NC(=O)[C@@H](NC(=O)[C@H](CC(=O)O)NC(=O)[C@H](CO)NC(=O)[C@@H](NC(=O)[C@H](Cc1ccccc1)NC(=O)[C@@H](NC(=O)CNC(=O)[C@H](CCC(N)=O)NC(=O)C(C)(C)NC(=O)[C@@H](N)Cc1c[nH]cn1)[C@@H](C)O)[C@@H](C)O)C(C)C)C(C)C)C(=O)N[C@@H](CC(C)C)C(=O)N[C@@H](CCC(=O)O)C(=O)NC(C)(C)C(=O)NCC(=O)O [Peptide 331]
0.0589 nM | 0.0775 nM | 1.5 | CC(C)C[C@H](NC(=O)[C@H](Cc1c[nH]c2ccccc12)NC(=O)[C@H](CCC(N)=O)NC(=O)[C@@H](NC(=O)[C@H](Cc1ccccc1)NC(=O)[C@H](CC(=O)O)NC(=O)[C@H](CCCCNC(=O)COCCOCCNC(=O)COCCOCCNC(=O)CC[C@H](NC(=O)CCCCCCCCCCCCCCCCC(=O)O)C(=O)O)NC(=O)[C@H](C)NC(=O)[C@H](CCCNC(=N)N)NC(=O)[C@H](CCCNC(=N)N)NC(=O)[C@H](CO)NC(=O)[C@H](CC(=O)O)NC(=O)[C@H](CC(C)C)NC(=O)[C@](C)(Cc1ccccc1)NC(=O)[C@H](CCCCN)NC(=O)[C@H](CO)NC(=O)[C@@H](NC(=O)[C@H](CC(=O)O)NC(=O)[C@H](CO)NC(=O)[C@@H](NC(=O)[C@H](Cc1ccccc1)NC(=O)[C@@H](NC(=O)CNC(=O)[C@H](CCC(N)=O)NC(=O)C(C)(C)NC(=O)[C@@H](N)Cc1c[nH]cn1)[C@@H](C)O)[C@@H](C)O)C(C)C)C(C)C)C(=O)N[C@@H](CC(C)C)C(=O)N[C@@H](CCC(=O)O)C(=O)NC(C)(C)C(=O)NCC(=O)O [Peptide 332]
